Test results published in ChEMBL document CHEMBL3044753, “Polyamines May Modulate Both G Protein-Coupled Receptors and G Proteins” (Med Chem Res, 2004).
Active and inactive are the calls of the source. The calls are words filed in the database; no cut-off is given here.

Assays:
Right cardiac atrium [1] = experiment: Negative […] activity in electrically-paced Cavia porcellus (guinea pig) right atrium measured immediately by isometric transducer analysis in presence of benextramine; type: functional, tissue-based
Left cardiac atrium [2] = experiment: Negative […] activity in electrically-paced Cavia porcellus (guinea pig) left atrium measured immediately by isometric transducer analysis in presence of benzalkonium/prazosin; type: functional, tissue-based
Right cardiac atrium [3] = experiment: Negative […] activity in electrically-paced Cavia porcellus (guinea pig) right atrium measured immediately by isometric transducer analysis in presence of AM 630; type: functional, tissue-based
Left cardiac atrium [4] = experiment: Negative […] activity in electrically-paced Cavia porcellus (guinea pig) left atrium measured immediately by isometric transducer analysis in presence of bupranolol; type: functional, tissue-based
Left cardiac atrium [5] = experiment: Reversible negative ionotropic activity in electrically-paced Cavia porcellus (guinea pig) left atrium incubated for few seconds followed by compound washout measured after 3 hr by isometric transducer analysis in absence of benzalkonium/prazosin; type: functional, tissue-based
Left cardiac atrium [6] = experiment: Negative […] activity in electrically-paced Cavia porcellus (guinea pig) left atrium measured immediately by isometric transducer analysis in presence of prazosin; type: functional, tissue-based
Left cardiac atrium [7] = experiment: Negative ionotropic activity in electrically-paced Cavia porcellus (guinea pig) left atrium measured immediately by isometric transducer analysis in absence of benzalkonium/prazosin relative to arecaidine propargyl ester; type: functional
Left cardiac atrium [8] = experiment: Negative […] activity in electrically-paced Cavia porcellus (guinea pig) left atrium measured immediately by isometric transducer analysis in presence of benzalkonium; type: functional, tissue-based
Left cardiac atrium [9] = experiment: Negative ionotropic activity in electrically-paced Cavia porcellus (guinea pig) left atrium measured immediately by isometric transducer analysis in presence of AM 251; type: functional, tissue-based
Right cardiac atrium [10] = experiment: Negative […] activity in electrically-paced Cavia porcellus (guinea pig) right atrium assessed as effect on rate measured immediately by isometric transducer analysis in absence of benzalkonium/prazosin relative to arecaidine propargyl ester; type: functional
Right cardiac atrium [11] = experiment: Negative […] activity in electrically-paced Cavia porcellus (guinea pig) right atrium assessed as effect on rate measured immediately by isometric transducer analysis in absence of benzalkonium/prazosin; type: functional, tissue-based
Left cardiac atrium [12] = experiment: Negative […] activity in electrically-paced Cavia porcellus (guinea pig) left atrium measured immediately by isometric transducer analysis in presence of thioperamide; type: functional, tissue-based
Right cardiac atrium [13] = experiment: Negative […] activity in electrically-paced Cavia porcellus (guinea pig) right atrium measured immediately by isometric transducer analysis in presence of DPCPX; type: functional, tissue-based
Right cardiac atrium [14] = experiment: Negative ionotropic activity in electrically-paced Cavia porcellus (guinea pig) right atrium measured immediately by isometric transducer analysis in presence of thioperamide; type: functional, tissue-based
Right cardiac atrium [15] = experiment: Negative ionotropic activity in electrically-paced Cavia porcellus (guinea pig) right atrium assessed as effect on force measured immediately by isometric transducer analysis in presence of benzalkonium/prazosin; type: functional, tissue-based
Left cardiac atrium [16] = experiment: Negative […] activity in electrically-paced Cavia porcellus (guinea pig) left atrium measured immediately by isometric transducer analysis in presence of pimozide; type: functional, tissue-based
Left cardiac atrium [17] = experiment: Negative […] activity in electrically-paced Cavia porcellus (guinea pig) left atrium measured immediately by isometric transducer analysis in presence of benzalkonium/prazosin relative to arecaidine propargyl ester; type: functional
Left cardiac atrium [18] = experiment: Negative ionotropic activity in electrically-paced Cavia porcellus (guinea pig) left atrium measured immediately by isometric transducer analysis in presence of ANR 83; type: functional, tissue-based
Right cardiac atrium [19] = experiment: Negative ionotropic activity in electrically-paced Cavia porcellus (guinea pig) right atrium measured immediately by isometric transducer analysis in presence of methoctramine; type: functional, tissue-based

## COc1ccccc1CN1CCC(C2CCN(C(=O)CCCCCCC(=O)N3CCC(C4CCN(Cc5ccccc5OC)CC4)CC3)CC2)CC1 [PIPERTRAMINE AMIDE]
Right cardiac atrium [1]
  Activity: Active
Left cardiac atrium [2]
  EC50: 41.7 pM
Right cardiac atrium [3]
  Activity: Active
Left cardiac atrium [4]
  Activity: Active
Left cardiac atrium [5]
  Activity: Active
Left cardiac atrium [6]
  Activity: Active
Left cardiac atrium [7]
  Efficacy: 58%
Left cardiac atrium [8]
  Activity: Active
Left cardiac atrium [9]
  Activity: Active
Right cardiac atrium [10]
  Efficacy: 37%
Right cardiac atrium [11]
  EC50: 977 pM
Left cardiac atrium [12]
  Activity: Active
Right cardiac atrium [13]
  Activity: Active
Right cardiac atrium [14]
  Activity: Active
Right cardiac atrium [15]
  EC50: 2290 pM
Left cardiac atrium [16]
  Activity: Active
Left cardiac atrium [17]
  Efficacy: 60%
Left cardiac atrium [18]
  Activity: Active
Right cardiac atrium [19]
  Activity: inactive
